This passage reports viability, T/C and IC50 results from PubChem BioAssay AID1963851 (Molecular Pharmacology Branch, DTP, NCI, 2024).

pIC50: −log10 of the molar value. Values joined by “and” are separate entries in the source; they are usually repeats but may differ in a detail not shown here. Equal values may be shown once.

This assay concerns 188146-221-R-J1-PDC complex spheroid viability. The experiment in a line: Anticancer human tumor 188146-221-R-J1-PDC patient-derived colon adenocarcinoma cell line growth inhibition [POLQ]. The following applies: for viability, T/C: stronger effect = lower value. As for the experimental part: Multicellular complex tumor spheroid response to Polymerase (POL) inhibitors (novobiocin, ART-558, RP6685) in combination with a variety of drugs and investigational agents in selected tumor cell lines
The POL inhibitors (novobiocin, ART-558, and RP6685) were evaluated both individually and in combination with standard of care and investigational anticancer small molecules within a complex spheroid model of solid tumors. . Complex spheroids include a stromal component modeled by human endothelial cells (HUVEC) and fibroblasts modeled by human mesenchymal stem cells (MSCs). The concentration ranges selected for each drug and investigational agent were based upon clinically achievable concentrations if the clinical Cmax of the agent was known.
Compounds. The drugs and investigational agents: novobiocin (NSC847541), ART-558 (NSC835418), RP-6685 (NSC848927), peposertib (NSC802822), ceralasertib (NSC780249), elimusertib (NSC800525), camonsertib (NSC841442), AZD-1390 (NSC803789), olaparib (NSC753686), talazoparib (NSC767125), rucaparib (NSC756644), sotorasib (NSC818433), MRTX-1133 (NSC836407), SN-38 (NSC673596), topotecan (NSC609699), epotoside (NSC141540), doxorubicin (NSC123127), gemcitabine (NSC613327), 5-fluorouracil (NSC19893), paclitaxel (NSC125973), vemurafenib (NSC761431), MSA-2 (NSC828583), SN-011 (NSC837082), adavosertib (NSC754352), prexasertib (NSC758257), carboplatin (NSC241240) and oxaliplatin (NSC266046), were obtained from the National Cancer Institute (NCI) Developmental Therapeutics Program Chemical Repository (21). The FDA-approved anticancer drug set is available from the Developmental Therapeutics Program at https://dtp.cancer.gov/organization/dscb/obtaining/. […] The stock solutions were prepared in dimethyl sulfoxide (DMSO, Sigma-Aldrich, St. Louis, MO, cat. D2650), except for the platinum compounds which were prepared in saline (Quality Biological, Gaithersburg, MD, cat. 114-055-101), at 800-fold the tested concentration and stored at -70 degrees C prior to their use. All drugs and investigational agents were tested over a range starting from a high concentration at or near the clinical Cmax and decreasing in half-log increments. If the clinical Cmax for an agent had not been determined, the highest concentration tested was 10 microM, except for SN-38, which was tested at a high concentration of 1 microM.
Cell Culture. All cells were maintained in an incubator at 37 degrees C and 5% CO2 with 95% humidity. The PDC lines were cultured according to standard operating procedures established by the NCI PDMR (https://pdmr.cancer.gov). Table 3 of the manuscript, lists the cell lines along with the number of the three cell types plated to form the mct-spheroids and media for tumor cell growth. After thawing, all PDC lines, except 997537-175-T-J1-PDC and 415267-285-R-J2-PDC, were cultured in Matrigel-coated flasks prepared with a working solution of 1X Ham's F-12 nutrient mix, without supplementation (Thermo Fisher Scientific, cat. 11765054), 100 U/mL penicillin-streptomycin (Thermo Fisher Scientific, cat. 15140122), and 2.5% Matrigel (Corning Inc., Corning, NY, cat. 354248) for the first three passages. The two PDC lines 997537-175-T-J1-PDC and 415267-285-R-J2-PDC were cultured on uncoated flasks. The 857933-349-R-J2-PDC line was cultured in 6C/Colon 1B media containing advanced DMEM/F-12 (Thermo Fisher Scientific, cat. 12634028), 10 mM HEPES (Thermo Fisher Scientific, cat. 15630080), 1X GlutaMAX supplement (Thermo Fisher Scientific, cat. 35050061), 0.1 mg/mL primocin (InvivoGen, San Diego, CA, cat. ant-pm-2), 10% defined fetal bovine serum, heat inactivated (HyClone Laboratories Inc., Logan, UT, cat. SH30070.03HI), 50% L-WRN conditioned media (ATCC, cat. CRL-3276), 1.25 mM N-Acetyl-L-cysteine (Sigma-Aldrich, cat. A9165), 10 mM nicotinamide (Sigma-Aldrich, cat. N0636), 1X B-27 supplement (Thermo Fisher Scientific, cat. 17504044), 1X N-2 supplement (Thermo Fisher Scientific, cat. […]
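Further: spheroids exposed to compounds for seven days.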
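Wherever viability, T/C is given: 100% = DMSO vehicle control viability.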

With `C#Cc1c(F)ccc2cc(O)cc(-c3ncc4c(N5CC6CCC(C5)N6)nc(OCC56CCCN5CC(F)C6)nc4c3F)c12` (stereo unspecified), the viability, T/C runs as follows: (compound 0.0316 µM) 100% and 103% and 99.2%; (compound 0.1 µM) 97.1% and 105% and 99.9%; (compound 0.316 µM) 90.5% and 81.7% and 89.8%; (compound 1 µM) 96.4% and 100% (2×); (compound 3.16 µM) 98.2% and 99.9% and 104%; (compound 10 µM) 89.1% and 102% and 85.3%. The pIC50 (curve of compound) is < 5.00.

As to `CC1COCCN1c1cc(C2(O)CC3CCC(C2)O3)c2cnn(-c3ccn[nH]3)c2n1` (stereo unspecified), the viability, T/C is 92% and 93.4% and 87% (compound 0.0316 µM); 84.8% and 75% and 73.3% (compound 0.1 µM); 44.9% and 50.6% and 53.1% (compound 0.316 µM); 28.2% and 28.1% and 26% (compound 1 µM); 21.8% and 18.4% and 19.3% (compound 3.16 µM); 6.59% and 6.67% and 8.27% (compound 10 µM). Besides, where the note is “curve of compound”, the pIC50 was 6.49 and 6.48 and 6.47.

Take `CCc1cc2c(N3CCc4c(cc(Cn5ccnc5)cc4-c4cn(C)nc4C(F)(F)F)C3=O)cc(C)nc2c(OC)n1`: the viability, T/C runs as follows: (compound 0.0316 µM) 114% and 97.3% and 106%; (compound 0.1 µM) 114% and 95.4% and 108%; (compound 0.316 µM) 95.9% and 83.1% and 98.9%; (compound 1 µM) 85.5% and 80.4% and 92.5%; (compound 3.16 µM) 71% and 77.1% and 66.7%; (compound 10 µM) 41.5% and 47.2% and 47.6%. Also, the pIC50 (curve of compound) was 5.14 and 5.02 and 5.07.

Consider `CCc1cc2c(N3CCc4c(cc(Cn5ccnc5)cc4-c4cn(C)nc4C(F)(F)F)C3=O)ccnc2c(OC)n1`, for which the viability, T/C by setting is: (compound 0.0316 µM) 103% and 102% and 97.4%; (compound 0.1 µM) 100% and 84.5% and 101%; (compound 0.316 µM) 100% and 99.4% and 92.2%; (compound 1 µM) 92.7% and 93.4% and 98.2%; (compound 3.16 µM) 69.5% and 74% and 71.6%; (compound 10 µM) 48.1% and 54.2% and 57.5%. Moreover, the pIC50 (curve of compound) was 5.05 and < 5.00.

Consider `COc1cc2cc(C(=O)CCC(=O)O)sc2cc1OC`, for which the viability, T/C is, setting by setting: (compound 0.0316 µM) 100% and 119% and 108%; (compound 0.1 µM) 84.6% and 105% (2×); (compound 0.316 µM) 108% and 88.4% and 95%; (compound 1 µM) 93% and 103% and 104%; (compound 3.16 µM) 100% and 109% and 108%; (compound 10 µM) 111% and 110% and 95.3%. Moreover, the negative logarithm of the IC50 (pIC50) (curve of compound) is < 5.00.

Take `Cc1cccc(N(C)C(=O)C2C(O)CCN2c2nc(C)cc(C(F)(F)F)c2C#N)c1` (stereo unspecified): the viability, T/C by setting is: (compound 0.1 µM) 102% [middle of 13 runs]; (compound 0.316 µM) 100% [middle of 13 runs]; (compound 1 µM) 105% [middle of 13 runs]; (compound 3.16 µM) 101% [middle of 13 runs]; (compound 10 µM) 97.8% [middle of 13 runs]. The negative logarithm of the IC50 (pIC50) is < 5.00 (compound alone, run of 10/31/2023) and < 5.00 (compound alone, run of 11/06/2023).

For the compound `O=C(Nc1ccc(O)c(NS(=O)(=O)c2ccc(F)cc2)c1)c1ccc(-c2ccccc2)cc1`, the viability, T/C reads like this: (compound 0.0316 µM) 93.2% and 100% and 110%; (compound 0.1 µM) 98.5% and 107% and 104%; (compound 0.316 µM) 89.5% and 95.1% and 93.5%; (compound 1 µM) 93.2% and 103% and 118%; (compound 3.16 µM) 99.4% and 81.3% and 100%; (compound 10 µM) 59.1% and 73.5% and 78.4%. In addition, the negative logarithm of the IC50 (pIC50) (curve of compound) is < 5.00.

On to `O=c1[nH]cc(F)c(=O)[nH]1` + COC1C(OC(N)=O)C(O)C(Oc2ccc3c(O)c(NC(=O)c4ccc(O)c(CC=C(C)C)c4)c(=O)oc3c2C)OC1(C)C, for which the negative-log IC50 (pIC50) is, setting by setting: (curve of first compound, second compound 0.0316 µM) 6.00; (curve of first compound, second compound 0.1 µM) 5.91; (curve of first compound, second compound 0.316 µM) 6.03; (curve of first compound, second compound 1 µM) 6.01; (curve of first compound, second compound 3.16 µM) 5.75; (curve of first compound, second compound 10 µM) 5.82. For the same compound, the viability, T/C is, setting by setting: (second compound 0.0316 µM, first compound 0.0316 µM) 107%; (second compound 0.0316 µM, first compound 0.1 µM) 106%; (second compound 0.0316 µM, first compound 0.316 µM) 72.7%; (second compound 0.0316 µM, first compound 1 µM) 53.1%; (second compound 0.0316 µM, first compound 3.16 µM) 39.8%; (second compound 0.0316 µM, first compound 10 µM) 34.9%. Moreover, the viability, T/C runs as follows: (second compound 0.1 µM, first compound 0.0316 µM) 95.2%; (second compound 0.1 µM, first compound 0.1 µM) 102%; (second compound 0.1 µM, first compound 0.316 µM) 75.4%; (second compound 0.1 µM, first compound 1 µM) 53.7%; (second compound 0.1 µM, first compound 3.16 µM) 41.4%; (second compound 0.1 µM, first compound 10 µM) 35%. The viability, T/C is 95.8% (second compound 0.316 µM, first compound 0.0316 µM); 98.5% (second compound 0.316 µM, first compound 0.1 µM); 75.4% (second compound 0.316 µM, first compound 0.316 µM); 49.3% (second compound 0.316 µM, first compound 1 µM); 37.6% (second compound 0.316 µM, first compound 3.16 µM); 36.6% (second compound 0.316 µM, first compound 10 µM). Further, the viability, T/C runs as follows: (second compound 1 µM, first compound 0.0316 µM) 111%; (second compound 1 µM, first compound 0.1 µM) 101%; (second compound 1 µM, first compound 0.316 µM) 72.4%; (second compound 1 µM, first compound 1 µM) 49.6%; (second compound 1 µM, first compound 3.16 µM) 43.8%; (second compound 1 µM, first compound 10 µM) 36%. Moreover, the viability, T/C (second compound 3.16 µM, first compound 0.0316 µM) was 102%; the viability, T/C (second compound 3.16 µM, first compound 0.1 µM) was 92.3%; the viability, T/C (second compound 3.16 µM, first compound 0.316 µM) is 76%; the viability, T/C (second compound 3.16 µM, first compound 1 µM) is 52.1%; the viability, T/C (second compound 3.16 µM, first compound 3.16 µM) is 49%; the viability, T/C (second compound 3.16 µM, first compound 10 µM) was 41.3%. In addition, the viability, T/C is, setting by setting: (second compound 10 µM, first compound 0.0316 µM) 97%; (second compound 10 µM, first compound 0.1 µM) 90.2%; (second compound 10 µM, first compound 0.316 µM) 80.7%; (second compound 10 µM, first compound 1 µM) 53.3%; (second compound 10 µM, first compound 3.16 µM) 43.2%; (second compound 10 µM, first compound 10 µM) 40.6%.
